Data published in patent publication US20230337677A1, “ARYL AND PYRIDYL AMIDE PESTICIDES AND COMPOSITIONS THEREOF” (University of Florida Research Foundation, Incorporated, priority 2019, published 2023).
Entries after “also recorded” stand apart in the source; their conditions may differ. Where two headings read alike, the source gives them in different places.

Key:
[1] = test system: Aedes aegypti mosquitoes, insecticide-susceptible Orlando strain; format: in vivo; conditions: for 1 h % Repellency, 100 μg/cm^2: screened at 100 μg/cm^2, strain not given; for vapor repellency / mortality, statement in words (Example 8): structure-activity analysis of Table 2; for knockdown in 1 hr repellency test (XXkd = number of insects incapacitated out of 16 females): 100 μg/cm^2; for 1 h Repellency EC50, μg/cm^2: (OR); for 1h % repellency: Screened at μg/cm^2
Method: The tubes as shown were held horizontally on the bench.
For assessing behavioral repellency (FIG. 1), Aedes aegypti mosquitoes were used from the insecticide-susceptible Orlando strain and the pyrethroid-resistant Puerto Rico strain. Sixteen female mosquitoes were transferred to a glass tube (12.5 cm long, 2.5 cm outer diameter) with the ends covered with netting. Each compound was dissolved in 1 mL of acetone and serial dilutions ranging from 30-0.01 μg/ml were made. Circular filter papers (5 cm^2) were saturated with 50 μL of each concentration and allowed 10 min for solvent evaporation. The filter papers were then placed in clear conical polypropylene caps and fixed to the end of the glass tubes. The netting prevented mosquito contact with the filter paper. The tubes were then aligned with a mark denoting the midline and the proportion of mosquitoes on the chemically treated side was scored for up to 60 min. At the end of the test, the tube was placed in a cage and the ability of the mosquitoes to fly out of the tube was assessed for 30 min. […] This post-test evaluated whether any non-responding mosquitoes (not repelled) resulted from intoxication or disorientation from the test chemical. For assessment of lethality, insects were held for 24 hr under constant exposure in glass tubes having treated filter papers.
Compounds were first screened at 100 μg/cm^2 for repellency and 24 h mortality.

[2] = test system: Aedes aegypti mosquitoes, insecticide-susceptible Orlando strain; conditions: for 24h % mortality: Screened at μg/cm^2
[3] = test system: Aedes aegypti mosquitoes, insecticide-susceptible Orlando strain; assay: whole plant or invertebrate; conditions: 24 h, read-out: 24 h % Mortality, 100 μg/cm^2
[4] = test system: Aedes aegypti strain Orlando (sensitive); assay: Topical toxicity (24 hour mortality), Ae. aegypti Orlando; format: in vivo
Method: (§1) The Aedes aegypti strains Orlando (sensitive) as well as the Puerto Rico (PR, resistant to permethrin) were used. The Anopheles gambiae (G3 sensitive strain, as well as Akron kdr (Akdr) strain, resistant to pyrethroids were also assessed. The larvae were provided by the USDA, Gainesville Fl, and raised in a pan with tap water maintained at 28° C. Larvae were fed a ground liver and yeast mixture, and pupae were placed in emergence cages. Adults were held at 28° C. and provided with cotton balls soaked in 10% sugar water for rearing and for all bioassays.
(§2) Female adults from 3 to 6 days were used for the experiments. The drug was dissolved in ethanol and then applied with a micro-applicator on the thorax, between the legs: 200 nL of drug per female mosquito, with different concentrations of the drug; 10 mosquitos were treated together per concentration per replicate, and put together in a small container with free access to sweet water. Mortality, i.e. no visible movement, was assessed 24 hours after treatment. Every compound was assessed on at least 3 different cohorts of mosquitoes, and the LD50 values and slopes were determined with Probit analysis, corrected with Abbott's formula.

[5] = test system: Anopheles gambiae G3 sensitive strain; assay: Topical toxicity (24 hour mortality), An. gambiae G3; format: in vivo
Method: as §1, §2

[6] = test system: Anopheles gambiae Akron kdr (Akdr) strain, resistant to pyrethroids; assay: Topical toxicity (24 hour mortality), An. gambiae Akdr; format: in vivo
Method: as §1, §2

[7] = screened at 100 μg/cm^2, 24 h, strain not given
[8] = topical application, 24 h mortality, female adults, susceptible Orlando strain
[9] = topical application, 24 h mortality, female adults, susceptible strain G3
[10] = topical application, 24 h mortality, female adults, pyrethroid-resistant Akdr strain

Row | SMILES | 1 h % Repellency, 100 μg/cm^2 [1] [%] | 24 h % Mortality, 100 μg/cm^2 [2, 7] [%] | mortality at 100 µg/cm2 [3] [%] | other results
1 | CCOC(=O)Nc1ccccc1C(F)(F)F [GMR020] | 16 | 9 |  | 
2 | C=CC(=O)Nc1ccccc1N [GMR022] | −8 | 16 |  | 
3 | C=CC(=O)Nc1ccccc1NC(=O)C=C [GMR024] | 0 |  | 3 | vapor repellency / mortality, statement in words (Example 8) [1]: reduced repellency and poor toxicity
4 | CC(C)(C)OC(=O)N(C(=O)C(F)(F)C(F)(F)C(F)(F)F)c1cc(Cl)nc(Cl)c1 [GMR087] |  |  |  | Ae. aegypti OR LD50 [4, 8]: 54.6 ng/mg; An. gambiae G3 LD50 [5, 9]: 23.00 ng/mg; An. gambiae RR (resistance ratio) ([6]; 24 h LD50 resistant strain (AKDR)/24 h LD50 susceptible strain (G3)): 0.9; An. gambiae AKDR LD50 [6, 10]: 20.50 ng/mg
5 | N#CC(F)(F)C(=O)Nc1cc(Cl)nc(Cl)c1 [GMR101] |  |  |  | Ae. aegypti OR LD50 [4, 8]: 1841 ng/mg; An. gambiae G3 LD50 [5, 9]: >100 ng/mg; An. gambiae AKDR LD50 [6, 10]: >100 ng/mg
6 | O/N=C(\Nc1cc(Cl)nc(C(F)(F)F)c1)C(F)(F)C(F)(F)C(F)(F)F [GMR105] | 24 | 21 |  | 
7 | CN(C(=O)C(F)(F)C(F)(F)OC(F)(F)F)c1cc(Cl)nc(Cl)c1 [GMR106] |  |  |  | knockdown in 1 hr repellency test (XXkd = number of insects incapacitated out of 16 females) [1]: 2; Ae. aegypti OR LD50 [4, 8]: 846 ng/mg; An. gambiae G3 LD50 [5, 9]: >1000 ng/mg; 24 h % Mortality, 100 μg/cm^2 ([2]; in vivo): 100%
8 | CN(C(=O)C(F)(F)C(F)(F)C(F)(F)F)c1cc(F)c(F)c(F)c1 [GMR113] | 0 |  | 6 | 
9 | CN(C(=O)C(F)(F)C(F)(F)OC(F)(F)F)c1cc(F)c(F)c(F)c1 [GMR114] | 0 |  | 6 | 
10 | O=C(Nc1ccccc1OC(F)(F)F)C(F)(F)C(F)(F)C(F)(F)F [GMR129] | 34 |  |  | Ae. aegypti OR LD50 [4, 8]: >6000 ng/mg; An. gambiae G3 LD50 [5, 9]: >1000 ng/mg; An. gambiae AKDR LD50 [6, 10]: ~1000 ng/mg
11 | CC(=O)Nc1c(Cl)cncc1Cl [GMR130] | 34 |  | 81 | 
12 | CCC(=O)Nc1c(Cl)cncc1Cl [GMR131] | −4 | 6 |  | 
13 | CCCC(=O)Nc1c(Cl)cncc1Cl [GMR132] | 4 |  | 28 | 
14 | O=C(Nc1cc(F)c(F)c(F)c1)C(F)(F)C(F)(F)F [GMR135] | 74 | 100 |  | 1 h Repellency EC50, μg/cm^2 [1]: 22.1 μg/cm^2; Ae. aegypti OR LD50 [4, 8]: 1792 ng/mg; 24 h LC50, μg/cm^2 ([2]; 24 h, LC50 (OR)): 21.6 μg/cm^2
15 | CC(C)CC(=O)Nc1cc(F)c(F)c(F)c1 [GMR141] | 16 | 19 |  | 
16 | CC(=O)Nc1cc(F)c(F)c(F)c1 [GMR142] | 50 |  | 66 | 
17 | CCC(=O)Nc1cc(F)c(F)c(F)c1 [GMR143] | 88 | 53 |  | 1 h Repellency EC50, μg/cm^2 [1]: 23 μg/cm^2; 24 h LC50, μg/cm^2 ([2]; 24 h, LC50 (OR)): 95 μg/cm^2
18 | CCCC(=O)Nc1cc(F)c(F)c(F)c1 [GMR144] | 62 | 38 |  | 
19 | COCc1c(F)c(F)c(COC(=O)[C@@H]2[C@@H](C=C(Cl)Cl)C2(C)C)c(F)c1F [GMR146] |  |  |  | knockdown in 1 hr repellency test (XXkd = number of insects incapacitated out of 16 females) [1]: 15; 24 h % Mortality, 100 μg/cm^2 ([2]; in vivo): 100%; 24 h LC50, μg/cm^2 ([2]; in vivo): 1 μg/cm^2
20 | CC1(C)[C@H](C=C(Cl)Cl)[C@H]1C(=O)Nc1cc(F)c(F)c(F)c1 [GMR148] | 12 |  | 6 | 
21 | CCC(=O)Nc1cccc(OC(F)(F)F)c1 [GMR160] | 42 |  | 16 | 1 h Repellency EC50, μg/cm^2 [1]: 123 μg/cm^2
22 | C#C[C@@H]1[C@@H](C(=O)Nc2cc(F)cc(F)c2)C1(C)C [GMR180] | −24 |  | 14.3 | 
23 | CCCCCCCCCC(=O)Nc1ccccc1OC(F)(F)F [GMR184] | −8 | 2 |  | 
24 | O=C(Nc1cc(F)cc(F)c1)C(F)(F)C(F)(F)F [GMR188] |  | 81 |  | 24 h LC50, μg/cm^2 ([2]; 24 h, LC50 (OR)): 4.9 μg/cm^2

Row | SMILES | 1 h % Repellency, 100 μg/cm^2 [1] [%] | 24 h % Mortality, 100 μg/cm^2 [2, 7] [%] | mortality at 100 µg/cm2 [3] [%] | other results
25 | O=C(Nc1ccc(F)cc1)C(F)(F)C(F)(F)F [GMR189] | 42 | 94 |  | 1 h Repellency EC50, μg/cm^2 [1]: 4.5 μg/cm^2; 24 h LC50, μg/cm^2 ([2]; 24 h, LC50 (OR)): 35.3 μg/cm^2
26 | O=C(Nc1ccc(F)cc1)C(F)(F)Sc1ccc(F)cc1 [GMR196] | 18 |  | 0 | 
27 | CC(SC(F)(F)F)C(=O)Nc1ccc(F)cc1 (stereo not shown) [GMR197] | 30 |  | 0 | 
28 | O=C(CCSC(F)(F)F)Nc1ccc(F)cc1 [GMR198] | 8 |  | 0 | 
29 | O=C(c1c(F)c(F)c(F)c(F)c1F)n1nnc2ccccc21 [MT2018-0314-01] | 32 |  | 0 | 
30 | O=C(Cc1c(F)c(F)c(F)c(F)c1F)n1nnc2ccccc21 [MT2018-0314-02] | 6 |  | 0 | 
31 | O=C(Nc1cccc(C(F)(F)F)c1)c1c(F)c(F)c(F)c(F)c1F [MT2018-0316-01] | 24 |  | 0 | vapor repellency / mortality, statement in words (Example 8) [1]: poor results
32 | O=C(Cc1c(F)c(F)c(F)c(F)c1F)Nc1cccc(C(F)(F)F)c1 [MT2018-0316-02] | 6 |  | 0 | 
33 | O=C(Nc1ccccc1C(F)(F)F)C(F)(F)C(F)(F)F [MTFI-2-1B] | 38 |  | 0 | 
34 | CCCCCCCCCCC(=O)Nc1ccccc1C(F)(F)F [MTFI-2-1F] | 6 |  | 0 | 
35 | O=C(CCl)Nc1cccc(C(F)(F)F)c1 [MTFI-2-2A] | 50 | 3 |  | 
36 | C=CCCCC(=O)Nc1cc(C(F)(F)F)cc(C(F)(F)F)c1 [MTFI-3-1C] | 38 | 0 |  | 
37 | O=C(CCC1CCCCC1)Nc1cc(C(F)(F)F)cc(C(F)(F)F)c1 [MTFI-3-1D] | 6 | 7 |  | 
38 | O=C(Nc1cc(C(F)(F)F)cc(C(F)(F)F)c1)C(F)(F)F [MTFI-3-1G] |  |  |  | knockdown in 1 hr repellency test (XXkd = number of insects incapacitated out of 16 females) [1]: 3; 24 h % Mortality, 100 μg/cm^2 ([2]; in vivo): 100%; 24 h LC50, μg/cm^2 ([2]; in vivo): 16 μg/cm^2
39 | O=C(CCC1CCCCC1)Nc1ccccc1C(F)(F)F [MTFI-3-2F] | 18 | 25 |  | 
40 | O=C(Nc1cc(F)c(F)c(F)c1F)C(F)(F)F [MTFI-5-4B] | 82 | 0 |  | 
41 | CC(C)(F)C(=O)Nc1ccccc1C(F)(F)F [MTFI-5-5A] | 82 | 3 |  | vapor repellency / mortality, statement in words (Example 8) [1]: reduced repellency; also recorded: little to no activity
42 | O=C(CC1CC1)Nc1ccccc1C(F)(F)F [MTFI-5-5C] | 82 | 0 |  | 1 h Repellency EC50, μg/cm^2 [1]: 34 μg/cm^2
43 | CC(C)(C)c1cccc(NC(=O)CCl)c1 [MTFI-5-7A] | 6 | 0 |  | 
44 | CCCCC(=O)Nc1cccc(OC(F)(F)F)c1 [MTFI-5-9A] | 50 | 0 |  | 
45 | CC(C)(C)c1cccc(NC(=O)CCl)c1 [compound 1] |  |  |  | 1h % repellency ([1]; Table 3B): 6%; 24h % mortality ([2]; Table 3B): 0%
46 | O=C(Nc1cc(F)c(F)c(F)c1)C(F)(F)C(F)(F)OC(F)(F)F [compound 51] |  |  |  | 1h EC50 (μg/cm^2) ([1]; Table 3A): 3.09 μg/cm^2; 1h % repellency ([1]; Table 3A): 100%; 24 h LC50, μg/cm^2 ([2]; Table 3A): 14.94 μg/cm^2; 24h % mortality ([2]; Table 3A): 100%
47 | O=C(Nc1cc(Cl)nc(C(F)(F)F)c1)C(F)(F)C(F)(F)C(F)(F)F [compound 56] |  |  |  | Ae. aegypti OR LD50 ([4]; Table 5, topical, 24 h): 17.30 ng/mg; An. gambiae G3 LD50 ([5]; Table 5, topical, 24 h): 6.50 ng/mg; An. gambiae AKDR LD50 ([6]; Table 5, topical, 24 h): 5.30 ng/mg
